Where two headings read alike, the source gives them in different places.
Assays:
[1] = Microsomal stability assay; format: in vitro ADME, rat; conditions: 10 μM, rat liver microsomes, 37 °C; 41 n = 3, 7-EC n = 1
[2] = target: T1, human PPARδ ligand-binding domain (Gal4 chimera) (Homo sapiens, UniProt Q03181); assay: Gal4 hybrid reporter gene assay, PPARδ; format: cell-based; set-up: Emax: dose or concentration left out as unconfirmed; conditions: for EC50: mean ± SEM
T1 construct: coding for the hinge region and LBD of the canonical isoform of the respective nuclear receptor; expressed in transfected cells; host or cells: HEK293T
T1 sequence (Q03181 211-439 limits assumed): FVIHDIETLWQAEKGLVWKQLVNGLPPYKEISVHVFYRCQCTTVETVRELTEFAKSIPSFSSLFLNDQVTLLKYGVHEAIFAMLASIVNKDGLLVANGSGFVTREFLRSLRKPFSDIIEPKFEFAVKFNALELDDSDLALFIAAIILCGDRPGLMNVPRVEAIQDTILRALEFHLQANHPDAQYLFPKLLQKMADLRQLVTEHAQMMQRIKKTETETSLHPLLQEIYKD

[3] = target: T2, human PPARγ ligand-binding domain (Gal4 chimera) (Homo sapiens, UniProt P37231); assay: Gal4 hybrid reporter gene assay, PPARγ; format: cell-based; set-up: Emax: dose or concentration left out as unconfirmed
T2 construct: coding for the hinge region and LBD of the canonical isoform of the respective nuclear receptor; expressed in transfected cells; host or cells: HEK293T
T2 sequence (P37231 238-503 limits assumed): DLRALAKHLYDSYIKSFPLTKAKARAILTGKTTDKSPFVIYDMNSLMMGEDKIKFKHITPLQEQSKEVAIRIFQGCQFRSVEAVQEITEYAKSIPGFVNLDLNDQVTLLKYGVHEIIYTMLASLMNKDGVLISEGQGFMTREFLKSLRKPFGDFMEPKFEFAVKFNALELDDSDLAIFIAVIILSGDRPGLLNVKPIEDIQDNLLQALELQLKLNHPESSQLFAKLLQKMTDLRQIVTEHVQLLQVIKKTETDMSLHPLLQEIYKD

[4] = target: T3, human PPARα ligand-binding domain (Gal4 chimera) (Homo sapiens, UniProt Q07869); assay: Gal4 hybrid reporter gene assay, PPARα; format: cell-based; set-up: Emax: dose or concentration left out as unconfirmed; conditions: for EC50: mean ± SEM
T3 construct: coding for the hinge region and LBD of the canonical isoform of the respective nuclear receptor; expressed in transfected cells; host or cells: HEK293T
T3 sequence (Q07869 239-466 limits assumed): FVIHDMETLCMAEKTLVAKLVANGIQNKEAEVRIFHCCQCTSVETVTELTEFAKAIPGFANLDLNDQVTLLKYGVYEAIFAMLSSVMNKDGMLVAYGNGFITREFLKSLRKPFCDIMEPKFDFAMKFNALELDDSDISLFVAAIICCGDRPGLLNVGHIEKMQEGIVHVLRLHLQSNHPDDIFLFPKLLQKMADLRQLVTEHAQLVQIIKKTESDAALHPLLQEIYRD

[5] = target: T4, human FXR:retinoid X receptor (RXR) heterodimer (Homo sapiens, UniProt Q96RI1); assay: Full-length FXR reporter gene assay (BSEP response element) in HeLa cells; format: cell-based; set-up: Emax: dose or concentration left out as unconfirmed; conditions: for Emax: read-out: max. rel. act. FXR; for EC50: mean ± SEM
T4 construct: pcDNA3-hFXR[32] and pSG5-hRXR[33] served for receptor overexpression in the full-length FXR assay; expressed in transfected cells; host or cells: HeLa

[6] = EC50 [μM] PPARδ, HEK293T, n = 3
[7] = EC50 [μM] PPARα, HEK293T, n = 3
[8] = HeLa, n = 3, read-out: EC50 [μM] FXR

T4 sequence (P19793 whole entry): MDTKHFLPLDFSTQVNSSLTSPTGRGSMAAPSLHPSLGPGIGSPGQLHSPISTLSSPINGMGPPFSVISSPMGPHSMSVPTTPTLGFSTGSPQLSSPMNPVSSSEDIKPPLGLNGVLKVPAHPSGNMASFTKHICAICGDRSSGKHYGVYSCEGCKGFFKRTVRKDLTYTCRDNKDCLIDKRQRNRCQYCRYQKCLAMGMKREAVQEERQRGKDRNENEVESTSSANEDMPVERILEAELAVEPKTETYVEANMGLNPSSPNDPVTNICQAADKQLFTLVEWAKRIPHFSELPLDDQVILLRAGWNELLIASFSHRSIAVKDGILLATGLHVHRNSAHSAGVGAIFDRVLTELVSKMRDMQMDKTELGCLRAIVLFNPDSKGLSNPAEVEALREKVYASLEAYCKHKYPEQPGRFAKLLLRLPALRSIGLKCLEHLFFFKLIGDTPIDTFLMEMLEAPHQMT
T4 sequence (Q96RI1 whole entry): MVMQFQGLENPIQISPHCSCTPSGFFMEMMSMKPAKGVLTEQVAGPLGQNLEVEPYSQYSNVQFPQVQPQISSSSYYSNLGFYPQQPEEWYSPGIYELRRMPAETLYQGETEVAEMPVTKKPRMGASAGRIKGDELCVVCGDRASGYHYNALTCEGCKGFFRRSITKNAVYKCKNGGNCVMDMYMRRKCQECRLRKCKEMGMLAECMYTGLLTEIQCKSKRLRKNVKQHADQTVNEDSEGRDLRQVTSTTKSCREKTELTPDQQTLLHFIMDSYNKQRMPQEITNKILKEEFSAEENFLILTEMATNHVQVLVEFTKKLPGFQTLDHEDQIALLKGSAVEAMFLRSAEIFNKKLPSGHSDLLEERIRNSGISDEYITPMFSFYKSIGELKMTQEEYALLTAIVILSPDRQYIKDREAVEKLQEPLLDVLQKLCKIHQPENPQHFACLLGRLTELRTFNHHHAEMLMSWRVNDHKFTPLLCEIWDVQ

Structure (SMILES) | percent of remaining compound, 15 min [1] | percent of remaining compound, 30 min [1] | percent of remaining compound, 60 min [1] | EC50 [2, 6] | Emax ([2]; read-out: max. rel. act. PPARδ) | EC50 [3] | Emax ([3]; read-out: max. rel. act. PPARγ) | EC50 [4, 7] | Emax ([4]; read-out: max. rel. act. PPARα) | Emax ([5]; HeLa) | EC50 [5, 8] | EC50 ([2]; Supplementary Table 1, chromene derivatives, n ≥ 2, read-out: PPAR EC50) | Emax ([2]; read-out: PPAR max. rel. act.) | EC50 ([3]; Supplementary Table 1, chromene derivatives, mean ± SEM, n ≥ 2, read-out: PPAR EC50) | Emax ([3]; read-out: PPAR max. rel. act.) | EC50 ([4]; PPAR EC50 [M], Supplementary Table 1, chromene derivatives, n ≥ 2) | Emax ([4]; read-out: PPAR max. rel. act.) | EC50 ([5]; Supplementary Table 1, chromene derivatives, n ≥ 2, read-out: FXR EC50)
CCOc1ccc2ccc(=O)oc2c1 [7-EC, 7-Ethoxycoumarin, reference compound] | 87% | 75% | 55% |  |  |  |  |  |  |  |  |  |  |  |  |  |  | 
Cc1ccc(C(=O)Nc2cccc(CCC(=O)O)c2)c(NC(=O)c2ccc3ccccc3c2)c1 [compound 17] |  |  |  | 0.17 ± 0.02 µM | 34% | 1400 ± 300 nM | 21% | 1.7 ± 0.2 µM | 67% | 21% | 1.5 ± 0.1 µM |  |  |  |  |  |  | 
CC(C)(Nc1cccc(NC(=O)c2ccccc2NC(=O)c2ccc3ccccc3c2)c1)C(=O)O [compound 15] |  |  |  | 3.6 ± 0.2 µM | 42% | 5100 ± 900 nM | 18% | 1.7 ± 0.1 µM | 71% | 10% | 0.45 ± 0.01 µM |  |  |  |  |  |  | 
O=C(O)CCc1cccc(NC(=O)c2ccccc2NC(=O)C2=Cc3cc(Cl)ccc3OC2)c1 [S6] |  |  |  |  |  |  |  |  |  |  |  | 1.6 ± 0.5 µM | 14 ± 2% | 3000 ± 500 nM | 5.1 ± 0.3% | 3.1 ± 0.4 µM | 27 ± 2% | > 10 µM

Reference: publication PMC9814779, “A triple farnesoid X receptor and peroxisome proliferator-activated receptor α/δ activator reverses hepatic fibrosis in diet-induced NASH in mice” (Communications Chemistry, 2020)
